Assay results as given in patent publication US9598433B2, “Hepatitis C virus inhibitors” (BRISTOL-MYERS SQUIBB COMPANY, priority 2012, dated 2017).

Assays:
[1] = tested on: HCV genotype 1b (Con1) replicon in HUH-7 cells; assay: HCV replicon luciferase reporter assay, genotype 1b; assay type: cell-based; conditions: Hepatitis C virus, 72 h, genotype 1b replicon, 3 days incubation, read-out: LE_1b (EC50, range)
Description: (§1) An HCV replicon whole cell system was established as described by Lohmann V, Korner F, Koch J, Herian U, Theilmann L, Bartenschlager R., Science 285(5424):110-3 (1999) and modified to introduce a luciferase reporter, as first described by Krieger et al (Krieger N, Lohmann V, and Bartenschlager R, J. Virol. 75(10):4614-4624 (2001)). CDNA encoding a humanized form of the Renilla luciferase gene and a linker sequence fused directly to the 3′-end of the luciferase gene were introduced into the replicon construct using an Ascl restriction site located in core, directly upstream of the neomycin marker gene. The adaptive mutation at position 1179 (serine to isoleucine) was also introduced (Blight K J, Kolykhalov, A A, Rice, C M, Science 290(5498):1972-1974). A stable cell line constitutively expressing this HCV replicon construct was generated by first linearizing plasmid DNAs with ScaI. RNA transcripts were synthesized in vitro using the T7 MegaScript transcription kit (Ambion, Austin, Tex.) according to manufacturer's directions. In vitro transcripts of the cDNA were transfected into the human hepatoma cell line, HUH-7. […] Resulting cell lines were characterized for positive and negative strand RNA production and protein production over time.
(§2) HCV replicon luciferase assays were developed to monitor the inhibitory effects of compounds described in the disclosure on HCV genotypes 1a and 1b viral replication. HUH-7 cells, constitutively expressing the HCV replicon, were grown in Dulbecco's Modified Eagle Media (DMEM) (Gibco-BRL) containing 10% Fetal calf serum (FCS) (Sigma) and 1 mg/mL G418 (Gibco-BRL). Compounds were serially diluted 3 folds in DMSO for a twenty-point titration and subsequently transferred to sterile 384-well tissue-culture treated plates (Corning cat #3571). The plates were then seeded with 50 μL of cells at a density of 3.0×10^3 cells/well in DMEM containing 4% FCS (final DMSO concentration at 0.5%). After 3 days incubation at 37° C., cells were analyzed for Renilla Luciferase activity using the EnduRen as substrate (Promega cat #E6485). The EnduRen substrate was diluted in DMEM and then added to the plates to a final concentration of 7.5 μM. The plates were incubated for 2 hrs at 37° C. and then read immediately for 30 seconds with Viewlux Imager (PerkinElmer) using a luminescence program. To assess cytotoxicity of compounds, CC50 values were generated by multiplexing the EnduRen-containing plates with Cell Titer-Blue (Promega, cat # G8082). Cell-Titer Blue (3 μL) was added to each well and incubated for 8 hrs at 37° C. The fluorescence signal from each well was read, with an excitation wavelength at 525/10 nm and an emission wavelength of 598/10 nm, using the Viewlux Imager.
(§3) The EC50 values for compounds were calculated by using a four-parameter logistic equation: y=A+((B−A)/(1+((C/x)^D))), where A and B denotes minimal and maximal % inhibition, respectively, C is the EC50, D is the hill slope and x represents compound concentration.

[2] = tested on: HCV genotype 1a (H77 strain) replicon in HUH-7 cells; assay: HCV replicon luciferase reporter assay, genotype 1a; assay type: cell-based; conditions: Hepatitis C virus, 72 h, genotype 1a replicon, 3 days incubation, read-out: LE_1a (EC50, range)
Description: as §1
A stable HCV replicon luciferase reporter cell line representing the genotype 1a H77 strain (Yanagi M, Purcell R H, Emerson S U, et al. Transcripts from a single full-length cDNA clone of hepatitis C virus are infectious when directly transfected into the liver of a chimpanzee. Proc Natl Acad Sci USA 1997; 94(16):8738-8743) was generated as described previously for the genotype 1b(Con1) replicon luciferase cell line. The replicon construct was modified by introducing mutations were introduced into the genes encoding the NS3 helicase domain (proline replaced by leucine at position 1496) and NS5A (serine to isoleucine at position 2204) to improve replication in cell culture.
as §2, §3

`COc1cnc(O[C@@H]2C[C@H]3C(=O)N[C@]4(C(=O)NS(=O)(=O)C5(C)CC5)C[C@H]4/C=C\CO[C@@H](C)C[C@@H](C)[C@H](NC(=O)OC(C)(C)C)C(=O)N3C2)c2ccccc12` [Compound 2601, tert-butyl ((2R,6S,7R,9S,13aS,14aR,16aS,Z)-2-((4-methoxyisoquinolin-1-yl)oxy)-7,9-dimethyl-14a-(((1-methylcyclopropyl)sulfonyl)carbamoyl)-5,16-dioxo-2,3,5,6,7,8,9,11,13a,14,14a,15,16,16a-tetradecahydro-1H-cyclopropa[e]pyrrolo[2,1-i][1,7,10]oxadiazacyclopentadecin-6-yl)carbamate] gave an EC50 [1] of 1.01 to 5 nM and an EC50 [2] of 1.01 to 5 nM.
With `CC[C@@H]1O[C@H](C)CC/C=C\[C@@H]2C[C@@]2(C(=O)NS(=O)(=O)C2(C)CC2)NC(=O)[C@@H]2C[C@@H](Oc3nc4c(c5cc(OC)c(F)cc35)CCCO4)CN2C(=O)[C@H]1NC(=O)OC(C)(C)C(F)(F)F` [Compound 1017, 1,1,1-trifluoro-2-methylpropan-2-yl ((2R,6S,7S,9R,13aS,14aR,16aS,Z)-7-ethyl-2-((8-fluoro-9-methoxy-2,3-dihydro-1H-pyrano[2,3-c]isoquinolin-6-yl)oxy)-9-methyl-14a-(((1-methylcyclopropyl)sulfonyl)carbamoyl)-5,16-dioxo-2,3,5,6,7,9,10,11,13a,14,14a,15,16,16a-tetradecahydro-1H-cyclopropa[i]pyrrolo[1,2-e][1,5,8]oxadiazacyclopentadecin-6-yl)carbamate] the EC50 [1] was 0.51 to 1 nM and the EC50 [2] was 0.51 to 1 nM.
`CC[C@@H]1OCCC/C=C\[C@@H]2C[C@@]2(C(=O)NS(=O)(=O)C2(C)CC2)NC(=O)[C@@H]2C[C@@H](Oc3ncc(OC)c4ccccc34)CN2C(=O)[C@H]1NC(=O)OC(C)(C)C(F)(F)F` [Compound 1011] was tested, and the EC50 [1] was 0.51 to 1 nM and the EC50 [2] was 0.51 to 1 nM.
`CC[C@@H]1O[C@H](C)CC/C=C\[C@@H]2C[C@@]2(C(=O)NS(=O)(=O)C2(C)CC2)NC(=O)[C@@H]2C[C@@H](Oc3nc4c(c5ccccc35)CCCO4)CN2C(=O)[C@H]1NC(=O)OC(C)(C)C(C)(F)F` [Compound 2301, 3,3-difluoro-2-methylbutan-2-yl ((2R,6S,7S,9R,13aS,14aR,16aS,Z)-2-((2,3-dihydro-1H-pyrano[2,3-c]isoquinolin-6-yl)oxy)-7-ethyl-9-methyl-14a-(((1-methylcyclopropyl)sulfonyl)carbamoyl)-5,16-dioxo-2,3,5,6,7,9,10,11,13a,14,14a,15,16,16a-tetradecahydro-1H-cyclopropa[i]pyrrolo[1,2-e][1,5,8]oxadiazacyclopentadecin-6-yl)carbamate] was tested, and the EC50 [1] was 0.1 to 0.5 nM and the EC50 [2] was 0.51 to 1 nM.
`CC[C@@H]1O[C@H](C)CC/C=C\[C@@H]2C[C@@]2(C(=O)NS(=O)(=O)C2(C)CC2)NC(=O)[C@@H]2C[C@@H](Oc3nccc4c5c(ccc34)OCCO5)CN2C(=O)[C@H]1NC(=O)OC(C)(C)C` [Compound 2611, tert-butyl ((2R,6S,7S,9R,13aS,14aR,16aS,Z)-2-((2,3-dihydro-[1,4]dioxino[2,3-f]isoquinolin-7-yl)oxy)-7-ethyl-9-methyl-14a-(((1-methylcyclopropyl)sulfonyl)carbamoyl)-5,16-dioxo-2,3,5,6,7,9,10,11,13a,14,14a,15,16,16a-tetradecahydro-1H-cyclopropa[i]pyrrolo[1,2-e][1,5,8]oxadiazacyclopentadecin-6-yl)carbamate] was tested, and the EC50 [1] was 0.51 to 1 nM and the EC50 [2] was 1.01 to 5 nM.
With `COc1cnc(O[C@@H]2C[C@H]3C(=O)N[C@]4(C(=O)NS(=O)(=O)C5(C)CC5)C[C@H]4/C=C\CC[C@@H](C)O[C@@H](C)[C@H](NC(=O)OC(C)(C)C(C)(F)F)C(=O)N3C2)c2cc(F)ccc12` [Compound 2008, 3,3-difluoro-2-methylbutan-2-yl ((2R,6S,7S,9R,13aS,14aR,16aS,Z)-2-((7-fluoro-4-methoxyisoquinolin-1-yl)oxy)-7,9-dimethyl-14a-(((1-methylcyclopropyl)sulfonyl)carbamoyl)-5,16-dioxo-2,3,5,6,7,9,10,11,13a,14,14a,15,16,16a-tetradecahydro-1H-cyclopropa[i]pyrrolo[1,2-e][1,5,8]oxadiazacyclopentadecin-6-yl)carbamate] the EC50 [1] was 0.1 to 0.5 nM and the EC50 [2] was 0.51 to 1 nM.
`COc1cnc(O[C@@H]2C[C@H]3C(=O)N[C@]4(C(=O)NS(=O)(=O)C5(CF)CC5)C[C@H]4/C=C\CC[C@@H](C)O[C@@H](C)[C@H](NC(=O)OC(C)(C)C(F)(F)F)C(=O)N3C2)c2ccccc12` [Compound 2015, 1,1,1-trifluoro-2-methylpropan-2-yl ((2R,6S,7S,9R,13a5,14aR,16aS,Z)-14a-(((1-(fluoromethyl)cyclopropyl)sulfonyl)carbamoyl)-2-((4-methoxyisoquinolin-1-yl)oxy)-7,9-dimethyl-5,16-dioxo-2,3,5,6,7,9,10,11,13a,14,14a,15,16,16a-tetradecahydro-1H-cyclopropa[i]pyrrolo[1,2-e][1,5,8]oxadiazacyclopentadecin-6-yl)carbamate] was tested, and the EC50 [1] was 0.51 to 1 nM and the EC50 [2] was 1.01 to 5 nM.
For `CC[C@@H]1O[C@H](C)CC/C=C\[C@@H]2C[C@@]2(C(=O)NS(=O)(=O)C2(C)CC2)NC(=O)[C@@H]2C[C@@H](Oc3nc(-c4ccc(OC(C)C)cn4)cc4cc(OC)ccc34)CN2C(=O)[C@H]1NC(=O)OC(C)(C)C(C)(F)F` [Compound 2613, 3,3-difluoro-2-methylbutan-2-yl ((2R,6S,7S,9R,13aS,14aR,16aS,Z)-7-ethyl-2-((3-(5-isopropoxypyridin-2-yl)-6-methoxyisoquinolin-1-yl)oxy)-9-methyl-14a-(((1-methylcyclopropyl)sulfonyl)carbamoyl)-5,16-dioxo-2,3,5,6,7,9,10,11,13a,14,14a,15,16,16a-tetradecahydro-1H-cyclopropa[i]pyrrolo[1,2-e][1,5,8]oxadiazacyclopentadecin-6-yl)carbamate], the EC50 [1] was 0.1 to 0.5 nM and the EC50 [2] was 1.01 to 5 nM.
With `CCOc1cc2ccnc(O[C@@H]3C[C@H]4C(=O)N[C@]5(C(=O)NS(=O)(=O)C6(C)CC6)C[C@H]5/C=C\CC[C@@H](C)O[C@@H](CC)[C@H](NC(=O)OC(C)(C)C(F)(F)F)C(=O)N4C3)c2cc1F` [Compound 2608, 1,1,1-trifluoro-2-methylpropan-2-yl ((2R,6S,7S,9R,13aS,14aR,16aS,Z)-2-((6-ethoxy-7-fluoroisoquinolin-1-yl)oxy)-7-ethyl-9-methyl-14a-(((1-methylcyclopropyl)sulfonyl)carbamoyl)-5,16-dioxo-2,3,5,6,7,9,10,11,13a,14,14a,15,16,16a-tetradecahydro-1H-cyclopropa[i]pyrrolo[1,2-e][1,5,8]oxadiazacyclopentadecin-6-yl)carbamate] the EC50 [1] was 0.1 to 0.5 nM and the EC50 [2] was 0.51 to 1 nM.
`CC[C@@H]1OCCC/C=C\[C@@H]2C[C@@]2(C(=O)NS(=O)(=O)C2(C)CC2)NC(=O)[C@@H]2C[C@@H](Oc3nccc4cc(OC)c(F)cc34)CN2C(=O)[C@H]1NC(=O)OC(C)(C)C(F)(F)F` [Compound 1009] showed an EC50 [1] of 1.01 to 5 nM and an EC50 [2] of 1.01 to 5 nM.
With `C[C@@H]1CC/C=C\[C@@H]2C[C@@]2(C(=O)NS(=O)(=O)C2(C)CC2)NC(=O)[C@@H]2C[C@@H](Oc3nccc4c5c(ccc34)OCCO5)CN2C(=O)[C@@H](NC(=O)OC(C)(C)C(F)(F)F)[C@H](C)O1` [Compound 2009, 1,1,1-trifluoro-2-methylpropan-2-yl ((2R,6S,7S,9R,13aS,14aR,16aS,Z)-2-((2,3-dihydro-[1,4]dioxino[2,3-f]isoquinolin-7-yl)oxy)-7,9-dimethyl-14a-(((1-methylcyclopropyl)sulfonyl)carbamoyl)-5,16-dioxo-2,3,5,6,7,9,10,11,13a,14,14a,15,16,16a-tetradecahydro-1H-cyclopropa[i]pyrrolo[1,2-e][1,5,8]oxadiazacyclopentadecin-6-yl)carbamate] the EC50 [1] was 0.51 to 1 nM and the EC50 [2] was 1.01 to 5 nM.
